Results taken from patent US20240246916A1, “7-NITRO-8-HYDROXYQUINOLINE DERIVATIVES, PREPARATION METHOD THEREFORE AND MEDICAL USE THEREOF” (Jiangsu Yahong Meditech Co., Ltd., priority 2021, published 2024).
Values after ≈ are worked out from the molar mass of the structure shown.

Columns and labels:
Format in all cases: cell-based
[1] = system: Escherichia coli (carbapenem-resistant clinical isolate; ATCC25922); assay: MIC by micro broth dilution (CLSI), Escherichia coli; settings: Escherichia coli; for MIC50 / MIC90: ATCC25922, Clinical strain; for MIC50: read-out: MIC50; for MIC90: read-out: MIC90; for MIC: Standard strain ATCC25922, read-out: MIC
Source text: (§1) The test bacteria were one strain of clinically isolated carbapenem-resistant Escherichia coli, two strains of carbapenem-resistant Acinetobacter baumannii, two strains of methicillin-resistant Staphylococcus aureus, two strains of sensitive Staphylococcus aureus, and 7 strains of Klebsiella pneumoniae. Duplicate strains isolated from the same patient were eliminated. There were also […] quality control strains Escherichia coli ATCC25922, Acinetobacter baumannii ATCC19606, Staphylococcus aureus ATCC29213, Klebsiella pneumoniae ATCC BAA-1705, ATCC 43816, ATCC BAA-2472, ATCC-BAA-1898, ATCC-BAA-1899, NCTC 13440 and ATCC-BAA-2470. There were 24 strains in total.
(§2) According to the recommendations of relevant documents of the American Clinical and Laboratory Standards Institute (CLSI), the micro broth dilution method was used to determine the MIC of the compounds of the present invention against clinically isolated strains. • 3.1 Formulation of antibacterial drug: All the compounds of the present invention were dissolved in DMSO. The drug concentration range was 128 mg/L to 0.06 mg/L. • 3.2 Culture medium: The drug susceptibility test used cation adjusted Mueller-Hinton broth (CAMHB). • 3.3 Amount of inoculum: The test bacteria cultured overnight were adjusted to 0.5 McFarland turbidity by the direct colony suspension method, and diluted 100 folds, the final inoculum amount was 10^5 CFU/mL. • 3.4 Culture conditions: The test bacteria were cultured at 35±2° C. for 20 hours in air.
(§3) The drug susceptibility test results were interpretated by reference to CLSI 2019 M100 29th edition criteria.
(§4) The quality control strains of the drug susceptibility test were Escherichia coli ATCC 25922, Acinetobacter baumannii ATCC 19606, Staphylococcus aureus ATCC 29213, Klebsiella pneumoniae ATCC BAA-1705, ATCC 43816, ATCC BAA-2472, ATCC-BAA-1898, ATCC-BAA-1899, NCTC 13440 and ATCC-BAA-2470.
(§5) The results of drug susceptibility test were statistically analyzed by WHONET software (version 5.6).

[2] = system: Staphylococcus aureus (methicillin-resistant and sensitive clinical isolates; ATCC29213); assay: MIC by micro broth dilution (CLSI), Staphylococcus aureus; settings: for MIC50 / MIC90: Clinical strain; for MIC50: read-out: MIC50; for MIC90: read-out: MIC90; for MIC: Standard strain ATCC29213, read-out: MIC
Source text: as §1, §2, §3, §4, §5

[3] = system: Acinetobacter baumannii (carbapenem-resistant clinical isolates; ATCC19606); assay: MIC by micro broth dilution (CLSI), Acinetobacter baumannii; settings: Acinetobacter baumannii; for MIC50 / MIC90: ATCC19606, Clinical strain; for MIC50: read-out: MIC50; for MIC90: read-out: MIC90; for MIC: Standard strain ATCC19606, read-out: MIC
Source text: as §1, §2, §3, §4, §5

Row | Structure (SMILES) | MIC50 [1] [µg/mL] | MIC90 [1] [µg/mL] | MIC [1] [µg/mL] | MIC50 [2] [µg/mL] | MIC90 [2] [µg/mL] | MIC [2] [µg/mL] | MIC50 [3] [µg/mL] | MIC90 [3] [µg/mL] | MIC [3] [µg/mL]
1 | CCN(CC)Cc1cnc2c(O)c([N+](=O)[O-])cc(Cl)c2c1.O=C(O)C(F)(F)F.O=C(O)C(F)(F)F [Example 90, 5-chloro-3-((diethylamino)methyl)-7-nitroquinolin-8-ol ditrifluoroacetate] | 64 | > 128 | 64 | 32 | 32 | 32 | 32 | 128 | 32
2 | O=[N+]([O-])c1cc(CN2CCCCC2)c2cccnc2c1O [Example 91, 7-nitro-5-(piperidin-1-ylmethyl)quinolin-8-ol acetate] | > 128 | > 128 | 128 | > 128 | > 128 | > 128 | > 128 | > 128 | 128
3 | O=[N+]([O-])c1cc(Cl)c2cc(CN3CCCCC3)cnc2c1O [Example 92, 5-chloro-7-nitro-3-(piperidin-1-ylmethyl)quinolin-8-ol] | > 128 | > 128 | 64 (≈ 199 µM) | 16 (≈ 49.7 µM) | 16 (≈ 49.7 µM) | 16 (≈ 49.7 µM) | 32 (≈ 99.5 µM) | 128 (≈ 398 µM) | 32 (≈ 99.5 µM)
4 | O=[N+]([O-])c1cc(CN2CCCC2)c2cccnc2c1O [Example 93, 7-nitro-5-(pyrrolidin-1-ylmethyl)quinolin-8-ol acetate] | > 128 | > 128 | > 128 | > 128 | > 128 | > 128 | > 128 | > 128 | > 128
5 | CCN(CC)Cc1cc([N+](=O)[O-])c(O)c2ncccc12 [Example 94, 5-((diethylamino)methyl)-7-nitroquinolin-8-ol] | 128 (≈ 465 µM) | 128 (≈ 465 µM) | 64 (≈ 232 µM) | > 128 | > 128 | > 128 | 64 (≈ 232 µM) | > 128 | 128 (≈ 465 µM)
6 | O=[N+]([O-])c1ccc2cc(CN3CCCCC3)cnc2c1O [Example 95, 7-nitro-3-(piperidin-1-ylmethyl)quinolin-8-ol] | 64 (≈ 223 µM) | 64 (≈ 223 µM) | 64 (≈ 223 µM) | 64 (≈ 223 µM) | 64 (≈ 223 µM) | 64 (≈ 223 µM) | 64 (≈ 223 µM) | 64 (≈ 223 µM) | 32 (≈ 111 µM)
7 | O=[N+]([O-])c1cc(Cl)c2cc(CN3CCOCC3)cnc2c1O [Example 96, 5-chloro-3-(morpholinomethyl)-7-nitroquinolin-8-ol] | > 128 | > 128 | > 128 | 32 (≈ 98.8 µM) | 64 (≈ 198 µM) | 32 (≈ 98.8 µM) | > 128 | > 128 | > 128
8 | O=[N+]([O-])c1ccc2cc(CN3CCOCC3)cnc2c1O [Example 97, 3-(morpholinomethyl)-7-nitroquinolin-8-ol] | > 128 | > 128 | > 128 | 128 (≈ 442 µM) | 128 (≈ 442 µM) | 128 (≈ 442 µM) | 128 (≈ 442 µM) | > 128 | 128 (≈ 442 µM)
9 | CCN(CC)Cc1cnc2c(O)c([N+](=O)[O-])ccc2c1 [Example 98, 3-((diethylamino)methyl)-7-nitroquinolin-8-ol] | 128 (≈ 465 µM) | 128 (≈ 465 µM) | 64 (≈ 232 µM) | 32 (≈ 116 µM) | 64 (≈ 232 µM) | 64 (≈ 232 µM) | 64 (≈ 232 µM) | 128 (≈ 465 µM) | 64 (≈ 232 µM)
10 | CNCc1cc([N+](=O)[O-])c(O)c2ncccc12.Cl.Cl [Example 99, 5-((methylamino)methyl)-7-nitroquinolin-8-ol dihydrochloride] | > 128 | > 128 | > 128 | > 128 | > 128 | > 128 | > 128 | > 128 | 128
11 | O=C1CN(Cc2cnc3c(O)c([N+](=O)[O-])ccc3c2)CCN1 [Example 100, 4-((8-hydroxy-7-nitroquinolin-3-yl)methyl)piperazin-2-one] | > 128 | > 128 | > 128 | > 128 | > 128 | > 128 | > 128 | > 128 | > 128
12 | Cl.Cl.Cl.O=[N+]([O-])c1cc(CN2CCNCC2)c2cccnc2c1O [Example 101, 7-nitro-5-(piperazin-1-ylmethyl)quinolin-8-ol trihydrochloride] | > 128 | > 128 | > 128 | > 128 | > 128 | > 128 | > 128 | > 128 | > 128
13 | Cl.Cl.Cl.O=[N+]([O-])c1ccc2cc(CN3CCNCC3)cnc2c1O [Example 102, 7-nitro-3-(piperazin-1-ylmethyl)quinolin-8-ol trihydrochloride] | > 128 | > 128 | 128 | > 128 | > 128 | > 128 | > 128 | > 128 | > 128
14 | CCNCc1cc([N+](=O)[O-])c(O)c2ncccc12.Cl.Cl [Example 103, 5-((ethylamino)methyl)-7-nitroquinolin-8-ol dihydrochloride] | > 128 | > 128 | > 128 | > 128 | > 128 | > 128 | > 128 | > 128 | > 128
15 | CN(C)Cc1cc([N+](=O)[O-])c(O)c2nccc(C(F)(F)F)c12 [Example 104, 5-((dimethylamino)methyl)-7-nitro-4-(trifluoromethyl)quinolin-8-ol] | > 128 | > 128 | 128 (≈ 406 µM) | > 128 | > 128 | > 128 | > 128 | > 128 | > 128
16 | O=[N+]([O-])c1c(F)c(Cl)c2cccnc2c1O [Example 110, 5-chloro-6-fluoro-7-nitroquinolin-8-ol] | 16 (≈ 66 µM) | 64 (≈ 264 µM) | 8 (≈ 33 µM) | 2 (≈ 8.24 µM) | 2 (≈ 8.24 µM) | 4 (≈ 16.5 µM) | 8 (≈ 33 µM) | 8 (≈ 33 µM) | 8 (≈ 33 µM)
